Measured values as given in patent US7407961B2, “Pyrazine derivatives and pharmaceutical use thereof” (Astellas Pharma Inc., priority 2003, dated 2008).
Where a name gives a salt, the structure may show the parent alone.

| Compound | melting point |
| --- | --- |
| CC(C)n1cc(-c2nc(C#N)c(N)nc2-c2ccccc2)ccc1=O (as salt: Na) (hydrate or solvate) [Example 32, 3-Amino-6-(1-isopropyl-6-oxo-1,6-dihydro-3-pyridyl)-5-phenyl-2-pyrazinecarbonitrile] | 205.4 °C |
| Cn1cc(-c2nc(C#N)c(N)nc2-c2ccccc2)ccc1=O (as salt: Na) [Example 11, 3-amino-6-(1-methyl-6-oxo-1,6-dihydro-3-pyridyl)-5-phenyl-2-pyrazinecarbonitrile] | > 250 °C |
| NC(=O)c1nc(-c2ccc(=O)[nH]c2)c(-c2ccccc2)nc1N (hydrate or solvate) [Example 2, 3-amino-6-(6-oxo-1,6-dihydro-3-pyridyl)-5-phenyl-2-pyrazinecarboxamide] | 215 to 220 °C |
| N#Cc1nc(-c2ccc(=O)[nH]c2)c(-c2ccccc2)nc1N (hydrate or solvate) [Example 10, 3-amino-6-(6-oxo-1,6-dihydro-3-pyridyl)-5-phenyl-2-pyrazinecarbonitrile] | 243 to 248 °C |
| COc1ccc(-c2nc(C(N)=O)c(N)nc2-c2ccccc2)cn1 (hydrate or solvate) [Example 15, 3-amino-6-(6-methoxy-3-pyridyl)-5-phenyl-2-pyrazinecarboxamide] | 208 to 212 °C |
| CC(C)n1cc(-c2nc(C(N)=O)c(N)nc2-c2ccccc2)ccc1=O (hydrate or solvate) [Example 16, 3-amino-6-(1-isopropyl-6-oxo-1,6-dihydro-3-pyridyl)-5-phenyl-2-pyrazinecarboxamide] | 245 °C |
| CC(C)n1cc(-c2nc(C(N)=O)c(N)nc2-c2ccccc2F)ccc1=O (hydrate or solvate) [Example 17, 3-Amino-5-(2-fluorophenyl)-6-(1-isopropyl-6-oxo-1,6-dihydro-3-pyridyl)-2-pyrazinecarboxamide] | 251.7 °C |
| CC(C)n1cc(-c2nc(C(N)=O)c(N)nc2-c2cccc(F)c2)ccc1=O (hydrate or solvate) [Example 18, 3-Amino-5-(3-fluorophenyl)-6-(1-isopropyl-6-oxo-1,6-dihydro-3-pyridyl)-2-pyrazinecarboxamide] | 258.8 °C |
| CC(C)n1cc(-c2nc(C(N)=O)c(N)nc2-c2ccc(F)cc2)ccc1=O (hydrate or solvate) [Example 19, 3-Amino-5-(4-fluorophenyl)-6-(1-isopropyl-6-oxo-1,6-dihydro-3-pyridyl)-2-pyrazinecarboxamide] | 235.6 °C |
| CC(C)n1cc(-c2nc(C(N)=O)c(N)nc2-c2cccc(Cl)c2)ccc1=O (hydrate or solvate) [Example 21, 3-Amino-5-(3-chlorophenyl)-6-(1-isopropyl-6-oxo-1,6-dihydro-3-pyridyl)-2-pyrazinecarboxamide] | 232.6 °C |
| CC(C)n1cc(-c2nc(C(N)=O)c(N)nc2-c2ccc(Cl)cc2)ccc1=O (hydrate or solvate) [Example 22, 3-Amino-5-(4-chlorophenyl)-6-(1-isopropyl-6-oxo-1,6-dihydro-3-pyridyl)-2-pyrazinecarboxamide] | 246.2 °C |
| COc1ccccc1-c1nc(N)c(C(N)=O)nc1-c1ccc(=O)n(C(C)C)c1 (hydrate or solvate) [Example 23, 3-Amino-6-(1-isopropyl-6-oxo-1,6-dihydro-3-pyridyl)-5-(2-methoxyphenyl)-2-pyrazinecarboxamide] | 263.1 °C |
| COc1cccc(-c2nc(N)c(C(N)=O)nc2-c2ccc(=O)n(C(C)C)c2)c1 (hydrate or solvate) [Example 24, 3-Amino-6-(1-isopropyl-6-oxo-1,6-dihydro-3-pyridyl)-5-(3-methoxyphenyl)-2-pyrazinecarboxamide] | 192.3 °C |
| COc1ccc(-c2nc(N)c(C(N)=O)nc2-c2ccc(=O)n(C(C)C)c2)cc1 (hydrate or solvate) [Example 25, 3-Amino-6-(1-isopropyl-6-oxo-1,6-dihydro-3-pyridyl)-5-(4-methoxyphenyl)-2-pyrazinecarboxamide] | 243.9 °C |
| CC(C)n1cc(-c2nc(C(N)=O)c(N)nc2-c2ccccc2OC(F)(F)F)ccc1=O (hydrate or solvate) [Example 26, 3-Amino-6-(1-isopropyl-6-oxo-1,6-dihydro-3-pyridyl)-5-[2-(trifluoromethoxy)phenyl]-2-pyrazinecarboxamide] | 206.5 °C |
| CC(C)n1cc(-c2nc(C(N)=O)c(N)nc2-c2cccc(OC(F)(F)F)c2)ccc1=O (hydrate or solvate) [Example 27, 3-Amino-6-(1-isopropyl-6-oxo-1,6-dihydro-3-pyridyl)-5-[3-(trifluoromethoxy)phenyl]-2-pyrazinecarboxamide] | 265.5 °C |
| CC(C)n1cc(-c2nc(C(N)=O)c(N)nc2-c2ccc(OC(F)(F)F)cc2)ccc1=O (hydrate or solvate) [Example 28, 3-Amino-6-(1-isopropyl-6-oxo-1,6-dihydro-3-pyridyl)-5-[4-(trifluoromethoxy)phenyl]-2-pyrazinecarboxamide] | 264 °C |
| CC(C)n1cc(-c2nc(C(N)=O)c(N)nc2-c2ccc(F)c(F)c2)ccc1=O (hydrate or solvate) [Example 29, 3-Amino-5-(3,4-difluorophenyl)-6-(1-isopropyl-6-oxo-1,6-dihydro-3-pyridyl)-2-pyrazinecarboxamide] | 225.8 °C |
| CC(C)n1cc(-c2nc(C(N)=O)c(N)nc2-c2cc(F)cc(F)c2)ccc1=O (hydrate or solvate) [Example 30, 3-Amino-5-(3,5-difluorophenyl)-6-(1-isopropyl-6-oxo-1,6-dihydro-3-pyridyl)-2-pyrazinecarboxamide] | 248.8 °C |
| CC(C)n1cc(-c2nc(C(N)=O)c(N)nc2-c2ccc(C#N)cc2)ccc1=O (hydrate or solvate) [Example 31, 3-Amino-5-(4-cyanophenyl)-6-(1-isopropyl-6-oxo-1,6-dihydro-3-pyridyl)-2-pyrazinecarboxamide] | 292 °C |
| CC(C)n1cc(-c2nc(C#N)c(N)nc2-c2ccccc2F)ccc1=O (hydrate or solvate) [Example 33, 3-Amino-5-(2-fluorophenyl)-6-(1-isopropyl-6-oxo-1,6-dihydro-3-pyridyl)-2-pyrazinecarbonitrile] | 210.6 °C |
| CC(C)n1cc(-c2nc(C#N)c(N)nc2-c2cccc(F)c2)ccc1=O (hydrate or solvate) [Example 34, 3-Amino-5-(3-fluorophenyl)-6-(1-isopropyl-6-oxo-1,6-dihydro-3-pyridyl)-2-pyrazinecarbonitrile] | 210.6 °C |
| CC(C)n1cc(-c2nc(C#N)c(N)nc2-c2ccc(F)cc2)ccc1=O (hydrate or solvate) [Example 35, 3-Amino-5-(4-fluorophenyl)-6-(1-isopropyl-6-oxo-1,6-dihydro-3-pyridyl)-2-pyrazinecarbonitrile] | 207 °C |
| COc1ccccc1-c1nc(N)c(C#N)nc1-c1ccc(=O)n(C(C)C)c1 (hydrate or solvate) [Example 36, 3-Amino-6-(1-isopropyl-6-oxo-1,6-dihydro-3-pyridyl)-5-(2-methoxyphenyl)-2-pyrazinecarbonitrile] | 222.6 °C |
